From patent US9364554B2, “Extracellular targeted drug conjugates” (priority 2009, dated 2016) come the findings set out here.

In general, IC50 refers to the point on the concentration scale where inhibition reaches its midpoint.

For data set [1], the system named is A375. In words: Cytotoxicity IC50 on A375. The data set is classed as cell-based. Particulars: Homo sapiens. An excerpt:
(§1) ND indicates IC50 values that could not be determined at the concentrations tested. The presence of the antibody M53's target on the cell surface as determined by M53 cell staining is indicated as Yes/No. The origin of the cell line and disease type for each cell line is also indicated.
Parent CEN09-106, CEN09-104 and CEN10-126 drugs were all linked to antibody M53 via the PEG24 linker as described in Example 5. The intermediate drug-PEG24's were capped with cysteine as described in Example 5. Cytotoxicity of the EDC's and the drug-PEG24 linkers were evaluated in vitro on the NSCLC line A549 and malignant melanoma cell line A375 as described in Example 5.

For data set [2], the system named is A549. Description: In vitro cell proliferation assay (CellTiter-Glo, 3 days) A549. Format: cell-based, human. As to conditions: for activity decrease when attached to the PEG24 linker and capped, compared to the free uncoupled agent: Example 15; for IC50: Homo sapiens. The protocol: (§2) In vitro cell proliferation assays. […] All cell lines were maintained in complete media [RPMI medium 1640 supplemented with 10% (wt/vol) fetal bovine serum and Gentamycin (50 μg/ml)]. Cells were plated at a density of 1250 (H460 and A549) or 1825 (HCT15 and MCF7) cells per well of each 384-well white tissue culture treated microtiter plate in 20 uls complete media, and then were grown for 24 hour at 37° C. with 7% CO2 in a humidified incubator before agent/conjugate addition. In a separate 96-well plate, agent and antibody conjugate (in PBS) stocks were serially diluted in complete media at 5× final working concentrations, and 5 ul added to the cells used in the assay. Cells were incubated with the agent/conjugate for 3 days before cell viability testing. Cell viability testing used the CellTiter-Glo luminescent cell viability assay (Promega, Madison, Wis.). IC50 values of the agents to each cell line were determined using GraphPad Prism 5 software.
For the experiment below, α-Fl-CEN10-105 (also termed α-Fl-106), CEN10-105-Cys (also termed PEG24106) and M53-PEG24-CEN09-106 were varied as indicated in FIG. 11. […] All were assayed in the A549 cell proliferation assay. Cells were maintained in complete media [RPMI medium 1640 supplemented with 10% (wt/vol) fetal bovine serum and Gentamycin (50 μg/ml)]. Cells were plated at a density of 1250 per well of a 384-well white tissue culture treated microtiter plate in 20 uls complete media, then were grown for 24 hour at 37° C. with 7% CO2 in a humidified incubator before agent/conjugate addition. In a separate 96-well plate, agent and antibody conjugate (in PBS) stocks were serially diluted in complete media at 5× final working concentrations, and 5 uls added to the cells used in the assay. For the competition assay (M53 Comp) M53 was serially diluted from 500 to 0.11 nM in the presence of 5 nM PEG24-106, and 5 ul of these dilutions were added to cells used in this assay. Cells were incubated with the agent/conjugate for 3 days before cell viability testing. Cell viability testing used the CellTiterGlo luminescent cell viability assay (Promega, Madison, Wis.).
Cytotoxicity of the above EDCs were evaluated in vitro on the NSCLC line A549. Cells were maintained in complete media [RPMI medium 1640 supplemented with 10% (wt/vol) fetal bovine serum and Gentamycin (50 μg/ml)]. Cells were plated at a density of 1250 per well of a 384-well white tissue culture treated microtiter plate in 20 uls complete media, then were grown for 24 hour at 37° C. with 7% CO2 in a humidified incubator before conjugate addition. In a separate 96-well plate, ADC (in PBS) stocks were serially diluted in complete media at 5× final working concentrations, and 5 uls added to the cells used in the assay. Cells were incubated in the presence of the compounds for 72 hrs prior to cell viability testing. Cell viability testing was performed using the CellTiter-Glo luminescent cell viability assay (Promega, Madison, Wis.).
Cytotoxicity of the above compounds were evaluated in vitro on the NSCLC line A549. Cells were maintained in complete media [RPMI medium 1640 supplemented with 10% (wt/vol) fetal bovine serum and Gentamycin (50 μg/ml)]. Cells were plated at a density of 1250 per well of a 384-well white tissue culture treated microtiter plate in 20 uls complete media, then were grown for 24 hour at 37° C. with 7% CO2 in a humidified incubator before agent addition.

For data set [3], the system named is MB-231. In words: Cytotoxicity IC50 on MB-231. The data set is classed as cell-based. As to conditions: Homo sapiens; Example 9.
Source text: as §1

The subject of data set [4] is MALME-3M. Description: Cytotoxicity IC50 on MALME-3M. The data set is classed as cell-based. As to conditions: Homo sapiens, Example 9.
Source text: as §1

The test system of data set [5] is H460. In words: In vitro cell proliferation assay (CellTiter-Glo, 3 days) H460. The data set is classed as cell-based. Particulars: Homo sapiens. As to the method:
as §2
(In ATP-based viability assays light output follows the ATP content of the culture.)

The subject of data set [6] is HCT15. Description: In vitro cell proliferation assay (CellTiter-Glo, 3 days) HCT15. The data set is classed as cell-based. Particulars: Homo sapiens. As to the method: as §2
Data set [7] has as its system HT29. In words: Cytotoxicity IC50 on HT29. The data set is classed as cell-based. Particulars: Homo sapiens, HT-29; Example 9.
Source text: as §1

Data set [8] concerns MCF7. Description: In vitro cell proliferation assay (CellTiter-Glo, 3 days) MCF7. The data set is classed as cell-based. Particulars: Homo sapiens. As to the method:
as §2

Data set [9] concerns MCF10a. In words: Cytotoxicity IC50 on MCF10a. The data set is classed as cell-based. Particulars: Homo sapiens, MCF-10A; Example 9.
Source text: as §1

Data set [10] has as its system SKOV3. Description: Cytotoxicity IC50 on SKOV3. Format: cell-based. Particulars: Homo sapiens, SK-OV-3; Example 9.
Source text: as §1

Data set [11] relates to MEL2. Description: Cytotoxicity IC50 on MEL2. Format: cell-based. Particulars: Homo sapiens, Example 9.
Source text: as §1

For data set [12], the system named is A431. Description: Cytotoxicity IC50 on A431. Format: cell-based. As to conditions: Homo sapiens, A-431; Example 9.
Source text: as §1

Data set [13] relates to A549 cells. In words: In vitro cell proliferation assay, Example 4 (CellTiter-Glo, 2 days). The data set is classed as cell-based, human. As to the method: In vitro cell proliferation assays. […] All cell lines were maintained in complete media [RPMI medium 1640 supplemented with 10% (wt/vol) fetal bovine serum and Gentamycin ([…])]. Cells were plated at a density of 5,000 cells per well of each 96-well black tissue culture treated microtiter plate in 95 ul complete media, then were grown for 24 hour at 37° C. with 7% CO2 in a humidified incubator before agent/conjugate addition. In a separate 96-well plate, agent (in DMSO) and antibody conjugate (in PBS) stocks were serially diluted in complete media at 20× final working concentrations, and 5 ul added to the cells used in the assay. Doxorubicin was used as the control to monitor the behavior of the cell lines used. Cells were incubated with the agent/conjugate for 2 days before luminescence reading. Cell viability testing used the CellTiter-Glo luminescent cell viability assay (Promega, Madison, Wis.).

Where [14] appears, read: A549, read-out: IC50 A549, Example 15.

Read-outs that look alike come from different tables or passages of the source. Bounds are passed on as bounds.

In the case of `C[C@]12CCC(=NNC(=O)CN)C=C1CCC1C2CC[C@]2(C)[C@@H](c3ccc(=O)oc3)CC[C@]12O` (stereo partly drawn) [CEN09-104, glycinyl hydrazine of scillarenone], the IC50 came out at 0.23 µM in data set [1] (A-375, Example 15) and 0.092 µM in data set [2] (setting [14]). In [2], the “activity decrease when attached to the PEG24 linker and capped, compared to the free uncoupled agent” value is reported as about 5 fold.

On to `C[C@]12CC[C@H](OC3OC[C@H](N)[C@@H](O)[C@@H]3O)C=C1CCC1C2CC[C@]2(C)[C@@H](c3ccc(=O)oc3)CC[C@]12O` (stereo partly drawn) [CEN09-106, Scillarenin-4-amino-4-deoxy-L-xylopyranoside], for which the IC50 is 0.007 µM in data set [3]; 0.0054 µM in data set [4]; 0.0032 µM in data set [1] (A-375, Example 9); 0.0014 µM in data set [1] (A-375, Example 15); 0.00131 µM in [5] (NCI-H460, 72 h, read-out: IC50 H460); 0.0016 µM in [5] (NCI-H460, read-out: IC50 H460). Besides, the IC50 in data set [6] (HCT-15, 72 h, read-out: IC50 HCT15) is 0.00235 µM; in data set [6] (HCT-15, read-out: IC50 HCT15) it was 0.0023 µM; in data set [7] it was 0.0031 µM; in data set [8] (MCF7, 72 h, read-out: IC50 MCF7), 0.00188 µM; in [8] (MCF7, read-out: IC50 MCF7), 0.0026 µM; in data set [2] (A549, 72 h, Example 14, cysteine-capped linker forms, A549, 72 hrs), 0.00046 µM. In addition, the IC50 in [2] (A549, 72 h, read-out: IC50 A549, 3 days, CellTiter-Glo) turned out to be 0.00056 µM; in data set [2] (A549, read-out: IC50 A549, Example 9), 0.0007 µM; in data set [2] (setting [14]), 0.0005 µM; in data set [9], 0.0066 µM; in data set [10], 0.0053 µM; in data set [11], 0.0043 µM. This compound had an IC50 in data set [12] of 0.002 µM.

In the case of `C[C@]12CC[C@H](O[C@@H]3OC(CO)[C@@H](O)[C@H](O)C3N)C=C1CCC1C2CC[C@]2(C)[C@@H](c3ccc(=O)oc3)CC[C@]12O` (stereo partly drawn) [CEN10-126, scillarenin-2-deoxy-2-amino-β-D-glucopyranoside], the “activity decrease when attached to the PEG24 linker and capped, compared to the free uncoupled agent” value in data set [2] was about 300 fold. The IC50 in data set [2] (setting [14]) came to 0.0013 µM.

`CC1=C2C[C@H]3[C@@H](CC=C4C[C@@H](O)CC[C@@]43C)[C@@H]2CC[C@]12O[C@@H]1C[C@H](C)CN(CCCCCCNC(=O)CCOCCOCCOCCOCCOCCOCCOCCOCCOCCOCCOCCOCCOCCOCCOCCOCCOCCOCCOCCOCCOCCOCCOCCOCCNC(=O)CCN3C(=O)C=CC3=O)C1[C@H]2C` (stereo partly drawn) [CEN10-130]: the IC50 in [2] (A549, Example 10, working concentrations 0.9 to 1000 uM, read-out: IC50 A549) stood at 244 µM.

As for `N[C@@H](C=O)[C@@H](O)[C@H](O)[C@H](O)CO` [GlcNH2, 2-amino-2-deoxy-D-Glucose, reference compound], the IC50 was over 1000 µM in data set [5] (NCI-H460, read-out: IC50 H460) and over 1000 µM in data set [2] (A549, read-out: IC50 A549, Example 11, 457 nM to 1 mM).

As to `CC1=C2C[C@H]3[C@@H](CC=C4C[C@@H](O)CC[C@@]43C)[C@@H]2CC[C@]12O[C@@H]1C[C@H](C)CN[C@H]1[C@H]2C` [cyclopamine, Cyclopamine, reference compound], the IC50 in data set [2] (A549, read-out: IC50 A549) was determined as 392 µM.

As to “scillarenin neo-4-amino-4-deoxy-L-xylopyranoside [CEN08-243]”, the “A549 cell cytotoxicity (in words)” value in data set [13] (within the testing concentration range, antibodies alone = reduced antibody with linker, no agent) is on record as “display cytotoxic activity”.

With “scillarenin-4-amino-4-deoxy-L-ribopyranoside [CEN09-107]”, the “activity of conjugate compared with free agent (in words)” value in [13] (A549, FIGS. 3-6) is “more active when not conjugated to L15”.
